Source: patent US11191798B2, “Extracts of Andrographis paniculata, methods for preparation and use thereof” (NUTRITION SCIENCE PARTNERS LIMITED, priority 2016, dated 2021)

Assays:
[1] = tested on: EGF; test: EGF mRNA expression in epithelial cell line HT29; format: cell-based, human; details: about 24 hours
Procedure: (§1) Enhancement of EGF and FGF expression were investigated in a human HT-29 and T84 cell lines.
(§2) Two adherent epithelial cell lines, HT29 and T84, were used in the assay. For sustaining cell culture, HT29 cells were incubated in cell culture dish with McCoy's 5a Medium containing 10% FBS, and T84 cells were incubated with DMEM/F-12 (1:1) medium containing 5% FBS. All cells were incubated at 37° C. with 5% CO2. Sub-culture was performed when cells reached 90% confluence.
(§3) For the assay, the cells were trypsinized and suspended in culture medium. The cell density was determined and adjusted to 1×10^6 cells/mL. Then, the cells were seeded into a 96-well plate and incubated at 37° C. with 5% CO2 overnight.
(§4) The two Andrographis paniculata extracts, Standard 1 and Example 1, were serially diluted in DMSO and further diluted in medium. Diluted solution was added into wells. The final concentrations for Standard 1 were: 300, 100, 30 and 10 μg/mL. The final concentrations for Example 1 were: 100, 30, 10 and 1 μg/mL. […]
(§5) Total RNA was extracted using RNeasy 96 kit (QIAGEN) and cDNA was synthesized from RNA template using High Capacity cDNA RT kit (Applied Biosystems). Quantitative real-time PCR detection of gene expression was using SYBR Premix Ex Taq TM II (TakaRa). Expression of genes analyzed by q-PCR was normalized to GAPDH using the fold change (2^−ΔΔCT) method. […]

[2] = tested on: FGF1; test: FGF1 mRNA expression in epithelial cell T84 (Assay 5); format: cell-based, human; details: about 24 hours
Procedure: as §1, §2, §3, §4, §5

[3] = tested on: FGF2; test: FGF2 mRNA expression in epithelial cell T84 (Assay 5); format: cell-based, human; details: about 24 hours
Procedure: as §1, §2, §3, §4, §5

[4] = tested on: FGF1; test: FGF1 mRNA expression in human T84 cell line (Assay 6); format: cell-based; details: about 24 hours
Procedure: Enhancement of FGF1 expression of Example 7 and the four ingredients AND, NAND, DAND, and DDAND was investigated in human T84 cell line.
The adherent epithelial cell line T84 was used in the assay. For sustaining cell culture, T84 cells were incubated with DMEM/F-12 (1:1) medium containing 5% FBS at 37° C. with 5% CO2. Sub-culture was performed when cells reached 90% confluence.
as §3
The two Andrographis paniculata extracts, Standard 1 and Example 7, and AND, NAND, DAND, DDAND, and the mixture of them (named as the mixture of 4 markers, wherein the amounts of AND, NAND, DAND, and DDAND were 69%, 11%, 5%, and 15%, respectively, by weight relative to the weight of the mixture) were serially diluted in DMSO and further diluted in medium. Diluted solution was added into wells. The final concentrations for Standard 1 were: 300 and 100 μg/mL. The final concentration for Example 7 was: 100 μg/mL. The final concentration for NAND, DAND and DDAND was 10 μg/mL and AND was 40 μg/mL. The final concentrations for mixture of 4 markers were: 100 and 30 μg/mL. The plate was incubated at 37° C. with 5% CO2 for about 24 hours. The supernatants were removed and 150 μL RLT buffer was added into each well. The plate was stored at −80° C. until RNA extraction.
Total RNA was extracted using RNeasy 96 kit (QIAGEN) and cDNA was synthesized from RNA template using High Capacity cDNA RT kit (Applied Biosystems). Quantitative real-time PCR detection of gene expression was using SYBR Premix Ex Taq TM II (TakaRa). Expression of genes analyzed by q-PCR was normalized to GAPDH using the fold change (2^−ΔΔCT) method. The formula used in the calculation is shown as follows: Fold=2^−ΔΔCT=2^−[(CT^test sample^−CT^test sample_GAPDH^)−(CT^minimum^−CT^minimum_GAPDH^)] where CTtest sample is the CT value of target gene in cells treated with the test samples; CTtest sample-GAPDH is the CT value of GAPDH gene in cells treated with the test samples; CTminimum is the CT value of target gene in cells treated without test samples, and CTminimum-GAPDH is the CT value of GAPDH gene in cells treated without test samples.

[5] = tested on: EGF; test: EGF mRNA expression in epithelial cell line T84; format: cell-based, human; details: about 24 hours
Procedure: as §1, §2, §3, §4, §5

[6] = tested on: DNBS-induced rat colitis; test: DNBS-induced rat colitis prophylactic model; format: in vivo, Wistar rats
Procedure: Assay 7: The In Vivo Efficacy of Andrographis Extract in a DNBS-Induced Rat Colitis Prophylactic Model 1. Materials 1.1. Test Compounds and Formulation Methods • Test articles: Two Andrographis paniculata extracts, Example 10 used in Experiment 1 and Example 11 used in Experiment 2. • Control drugs: Standard 1; and Sulfasalazine (SASP), Sigma-Aldrich, Cat S0883.
Oral suspension of the test articles and Standard 1 were prepared as follows: the test articles and Standard 1 were respectively weighed and added into a 50 mL centrifuge tube. 0.5% sodium carboxymethylcellulose (0.5% CMC-Na) was added. Sonicate for 15 min to give suspensions with desired concentration. The fresh-made formulation was stored away from light, and homogenized thoroughly before use. The administration volume was 10 ml/kg.
Oral suspension of SASP was prepared as follows: SASP was weighed and added into a 50 mL centrifuge tube. 0.5% CMC-Na was added. Sonicate for 15 min to give 30 mg/mL suspension. The fresh-made formulation was stored away from light, and homogenized thoroughly before use. The administration volume was 10 ml/kg.
Male Wistar rats, 110-130 g, were purchased from Shanghai SLAC Laboratory Animal Co. Ltd.
Wistar rats were randomized assigned. The fasting rats were anesthetized with 25 mg/kg Zoletil and 0.5 mg/kg xylazine. And colitis was induced by intracolonic administration of 10 mg or 12 mg DNBS dissolved in 0.25 mL of 30% ethanol (v/v). The animals in naive control group were instilled with 30% ethanol only.
• Body weight: Body weights of animals were checked daily on and after grouping. • Diarrhea score: Stool consistency of the animals was monitored and scored daily from the 3rd day after the model induction. Evaluation criteria: 0=formed, 1=moist/sticky, 2=loose, 3=liquid. • Colon weight and length measurement: Rats were sacrificed 4 h post the last dosing on the 6th day. The abdomen was opened by a midline incision. Adhesion degree of colon and other organs was observed. The colon (from cecum end to the anus) was emptied of its content, rinsed with saline. The weight and length of the colon were measured, and then the colon ratio (colon weight/colon length) was calculated. • Histopathology analysis: Proximal colon with obvious ulcer was made into Swiss Rolls, fixed in 10% neutral formalin solution, dehydrated with xylene, embedded in paraffin, sectioned, and stained with hematoxylin and eosin (H&E). […] The severity of lesion was graded based on a semi-quantitative scale using the sum of scores of the following 10 evaluation indicators (see table 7).
All of the data were presented as mean±SD.
Body weight data were analyzed with repeated-measures ANOVA analysis by GraphPad Prism 6.0 software. Fisher's Least Significant Difference (LSD) test was used to perform significance analysis. p value was calculated. *p<0.05 refers to significant difference between vehicle control group and each of the treated groups. **p<0.01 refers to extremely significant difference between vehicle control group and each of the treated groups.
The colon ratio inhibition of each animal was calculated by the following formula, wherein CW refers to colon weight, CL refers to colon length:
The statistical analysis of the data of colon length and colon ratio was performed by Graphpad Prism 6.0 software. Unpaired t test or Mann-Whitney test were applied to analyze the significance analysis between test article treated groups and vehicle treated group, based on the normality of the data.

[7] = Experiment 1, 300 mg/kg PO, mean±SD

In the case of `C=C1CC[C@@H]2[C@](C)(CO)[C@H](O)CC[C@@]2(C)[C@@H]1C/C=C1/C(=O)OC[C@H]1O` [AND, Andrographolide], the “mRNA expression of EGF in HT29 cells” value [1] is reported as “increased”, the “mRNA expression of FGF1 in T84 cells” value [2] is reported as “had no similar effect” and the “mRNA expression of FGF2 in T84 cells” value [3] is reported as “had no similar effect”. For the same compound, the FGF1 up-regulation effect ([4]; T84, 40 μg/mL) was “did not show similar FGF1 up-regulation effect” and the “mRNA expression of EGF in T84 cells” value [5] was “increased”.
With `C=C1CC[C@@H]2[C@](C)(CO)[C@H](O)CC[C@@]2(C)[C@@H]1CCC1=CCOC1=O` [DAND, 14-deoxyandrographolide] the FGF1 up-regulation effect ([4]; T84, 10 μg/mL) was “did not show similar FGF1 up-regulation effect”.
In the case of `C=C1CCC2C(C)(CO)C(O)CCC2(C)C1/C=C/C1=CCOC1=O` (stereo not shown) [DDAND, 14-Deoxy-11,12-dehydroandrographolide], the FGF1 up-regulation effect ([4]; T84, 10 μg/mL) is reported as “did not show similar FGF1 up-regulation effect”.
With `C=C1CC[C@@H]2[C@](C)(CO[C@@H]3O[C@H](CO)[C@@H](O)[C@H](O)[C@H]3O)CCC[C@@]2(C)[C@@H]1CCC1=CCOC1=O` [NAND, Neoandrographolide] the FGF1 up-regulation effect ([4]; T84, 10 μg/mL) was “did not show similar FGF1 up-regulation effect”.
For `O=C(O)c1cc(/N=N/c2ccc(S(=O)(=O)Nc3ccccn3)cc2)ccc1O` [SASP, Sulfasalazine], the colon histopathology findings ([6]; 300 mg/kg/day, 8 samples) was “five samples showed severe mucosal erosion and inflammatory cell infiltration”, the “Colon ratio inhibition, %” value ([6]; Experiment 1, 300 mg/kg PO) was 44.5% and the “Colon ration CW/CL (%)” value [6, 7] was 0.0846 ± 0.0089 %. For the same compound, the “Crypt abscesses, histopathological score” value [6, 7] was 0.1 ± 0.4, the “Degree of cellular infiltrate, histopathological score” value [6, 7] was 2.1 ± 0.8 and the “Degree of erosion/ulcer, histopathological score” value [6, 7] was 1.6 ± 1.4. The “Degree of mucosa edema, histopathological score” value [6, 7] was 1.6 ± 0.9, the “Epithelium hyperplasia, histopathological score” value [6, 7] was 0.8 ± 0.5 and the “Goblet cell depletion, histopathological score” value [6, 7] was 0.9 ± 0.4. The “Muscle thickening, histopathological score” value [6, 7] was 1.4 ± 0.9, the “Severe destruction for erosion (%), histopathological score” value [6, 7] was 0.8 ± 0.7 and the “Severely affected in infiltration (%), histopathological score” value [6, 7] was 1.6 ± 0.7. For the same compound, the “The sum of score (colon histopathology)” value [6, 7] was 12.5 ± 6.3 and the “Total area affected (%), histopathological score” value [6, 7] was 1.6 ± 0.7.
